The target of one experiment is T1, MKK4 (Homo sapiens, UniProt P45985).
T1 sequence (P45985 84-399): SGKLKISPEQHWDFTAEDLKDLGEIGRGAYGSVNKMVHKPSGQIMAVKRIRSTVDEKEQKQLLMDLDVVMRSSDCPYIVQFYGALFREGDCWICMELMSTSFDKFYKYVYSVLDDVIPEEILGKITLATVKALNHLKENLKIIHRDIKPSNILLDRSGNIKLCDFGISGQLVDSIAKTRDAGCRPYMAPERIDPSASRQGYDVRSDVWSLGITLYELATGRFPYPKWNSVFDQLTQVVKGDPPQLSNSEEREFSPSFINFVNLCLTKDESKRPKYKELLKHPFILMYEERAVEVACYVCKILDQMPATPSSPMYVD
Briefly: KINOMEscan competition binding assay, MKK4. The following applies: read-out: Potency MKK4 (derived from % of control values, PoC).

The target in the next experiment is BRaf (Homo sapiens, UniProt P15056). Kind of experiment: KINOMEscan competition binding assay, selectivity BRaf versus MKK4. Particulars: Test conc. 0.1 μM; ratio of percent of control; N/E* per footnote. The method, then: The assay was performed by combining three components: DNA-tagged kinase; immobilized ligand; and a test compound. The ability of the test compound to compete with the immobilized ligand was measured via quantitative PCR of the DNA tag. The technology is described in detail in Fabian, M. A. et al. A small molecule-kinase interaction map for clinical kinase inhibitors. Nat. […] Nat.
The test compounds were provided as 10 mM stock solutions. The test solutions at indicated final concentrations were prepared at DiscoverX.

In another experiment the target is T2, MKK7 (Homo sapiens, UniProt O14733).
T2 sequence (O14733 1-419): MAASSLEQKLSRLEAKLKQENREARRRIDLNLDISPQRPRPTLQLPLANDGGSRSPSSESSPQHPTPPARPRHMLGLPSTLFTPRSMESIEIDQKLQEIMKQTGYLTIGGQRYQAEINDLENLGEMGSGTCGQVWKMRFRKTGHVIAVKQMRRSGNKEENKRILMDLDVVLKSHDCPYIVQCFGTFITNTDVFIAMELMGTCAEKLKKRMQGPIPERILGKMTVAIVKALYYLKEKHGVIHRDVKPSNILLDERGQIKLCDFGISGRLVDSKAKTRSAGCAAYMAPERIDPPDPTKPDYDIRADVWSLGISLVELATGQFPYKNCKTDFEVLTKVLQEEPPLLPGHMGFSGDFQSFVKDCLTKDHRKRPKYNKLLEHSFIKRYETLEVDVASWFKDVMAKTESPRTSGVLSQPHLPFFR
Briefly: KINOMEscan competition binding assay, selectivity MKK7 versus MKK4. The following applies: Test conc. 0.1 μM; ratio of percent of control; N/E* per footnote.

Another experiment deals with JNK1 (Homo sapiens, UniProt P45983). Kind of experiment: KINOMEscan competition binding assay, selectivity JNK1 versus MKK4. The following applies: ratio of percent of control.
Where [1] appears, read: Test conc 0.1 μM, N/E* = PoC for JNK1 = 100.

Structures are written as SMILES. Some results are limits rather than exact numbers.

Sequence of JNK1 (P45983 1-384 isoform P45983-2): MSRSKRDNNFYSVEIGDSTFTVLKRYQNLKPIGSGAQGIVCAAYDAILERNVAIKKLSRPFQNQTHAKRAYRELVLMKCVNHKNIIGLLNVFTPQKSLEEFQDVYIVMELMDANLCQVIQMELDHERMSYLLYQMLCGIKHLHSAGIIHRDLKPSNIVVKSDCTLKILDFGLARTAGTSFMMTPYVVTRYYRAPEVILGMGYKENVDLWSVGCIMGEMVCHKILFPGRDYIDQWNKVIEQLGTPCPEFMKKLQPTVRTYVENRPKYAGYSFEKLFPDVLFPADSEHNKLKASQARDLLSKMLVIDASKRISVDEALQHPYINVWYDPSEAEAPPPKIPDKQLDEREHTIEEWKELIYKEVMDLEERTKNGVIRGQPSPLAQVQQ
Sequence of BRaf (P15056 whole entry): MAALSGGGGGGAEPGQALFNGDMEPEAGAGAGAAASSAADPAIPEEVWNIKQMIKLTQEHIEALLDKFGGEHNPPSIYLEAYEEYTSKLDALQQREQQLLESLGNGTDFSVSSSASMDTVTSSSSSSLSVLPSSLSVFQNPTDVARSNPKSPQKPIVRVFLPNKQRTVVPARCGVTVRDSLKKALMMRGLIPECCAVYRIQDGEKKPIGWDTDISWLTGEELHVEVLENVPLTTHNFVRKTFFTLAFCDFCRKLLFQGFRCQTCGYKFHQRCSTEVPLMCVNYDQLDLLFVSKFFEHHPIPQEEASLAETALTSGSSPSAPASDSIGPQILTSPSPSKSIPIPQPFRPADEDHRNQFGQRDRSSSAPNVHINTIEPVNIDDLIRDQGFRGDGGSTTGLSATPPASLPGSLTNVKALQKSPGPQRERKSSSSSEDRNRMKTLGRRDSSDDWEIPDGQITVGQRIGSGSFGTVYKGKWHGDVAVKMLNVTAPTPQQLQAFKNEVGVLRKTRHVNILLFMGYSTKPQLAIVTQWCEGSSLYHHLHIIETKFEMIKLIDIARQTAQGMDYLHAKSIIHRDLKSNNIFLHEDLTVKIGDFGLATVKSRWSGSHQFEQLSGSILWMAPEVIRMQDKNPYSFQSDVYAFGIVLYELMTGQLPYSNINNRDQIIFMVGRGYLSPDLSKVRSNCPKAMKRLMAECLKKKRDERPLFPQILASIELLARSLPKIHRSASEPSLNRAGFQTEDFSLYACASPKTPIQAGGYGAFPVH
Method for JNK1: (§1) For investigation of the affinity to MKK4, MKK7 and JNK1, the kinases were produced in HEK-293 cells and subsequently tagged with DNA for qPCR detection. […] The liganded beads were blocked with excess biotin and washed with blocking buffer (SEABLOCK™ (Pierce), 1% BSA, 0.05% TWEEN®20, 1 mM DTT) to remove unbound ligand and to reduce nonspecific binding. […] All reactions were performed in polystyrene 96-well plates in a final volume of 0.135 mL. […] The kinase concentration in the eluates was measured by qPCR.
Method for MKK7: as §1

As for `CCCS(=O)(=O)Nc1ccc(F)c(C(=O)c2c[nH]c3ncc(-c4ccc(OC)cc4)cc23)c1F` [Example 3, N-(2,4-Difluoro-3-(5-(4-methoxyphenyl)-1H-pyrrolo[2,3-b]pyridine-3-carbonyl)phenyl)propane-1-sulfonamide], the remaining binding at 0.1 µM on MKK4 fell in the range of 10 to 30%. Also, the “Selectivity BRaf/MKK4” value at BRaf was determined as 1.0. In addition, the “Selectivity MKK7/MKK4” value on MKK7 was 10. For the same compound, the “Selectivity JNK1/MKK4” value at JNK1 (Test conc 10 μM) is given as over 400.

Turning to `CCCS(=O)(=O)Nc1ccc(F)c(C(=O)c2c[nH]c3ncc(-c4ccc(C#N)cc4)cc23)c1F` [Example 4, N-(3-(5-(4-Cyanophenyl)-1H-pyrrolo[2,3-b]pyridine-3-carbonyl)-2,4-difluorophenyl)propane-1-sulfonamide], the remaining binding at 0.1 µM on MKK4 was 10 to 30%. In addition, the “Selectivity BRaf/MKK4” value on BRaf was found to be 2.8. The “Selectivity MKK7/MKK4” value on MKK7 is given as 25. The “Selectivity JNK1/MKK4” value on JNK1 (Test conc 10 μM) is reported as over 400.

For the compound `CCCS(=O)(=O)Nc1ccc(F)c(C(=O)c2c[nH]c3ncc(-c4cnc5ccccc5c4)cc23)c1F` [Example 6, N-(2,4-Difluoro-3-(5-(quinolin-3-yl)-1H-pyrrolo[2,3-b]pyridin-3-carbonyl)phenyl)propane-1-sulfonamide], the remaining binding at 0.1 µM on MKK4 was over 30%. The “Selectivity BRaf/MKK4” value at BRaf stood at 0.1. Further, the “Selectivity MKK7/MKK4” value at MKK7 was found to be 5.6. Further, the “Selectivity JNK1/MKK4” value at JNK1 (Test conc 10 μM) is reported as over 100.

`CCCS(=O)(=O)Nc1ccc(F)c(C(=O)c2c[nH]c3ncc(-c4ccc(SC)cc4)cc23)c1F` [Example 8, N-(2,4-Difluoro-3-(5-(4-(methylthio)phenyl)-1H-pyrrolo[2,3-b]pyridine-3-carbonyl)phenyl)propane-1-sulfonamide]: on MKK4, the remaining binding at 0.1 µM was over 30%. Moreover, at BRaf, the “Selectivity BRaf/MKK4” value amounted to 0.5. Besides, at MKK7, the “Selectivity MKK7/MKK4” value was 7.6. The “Selectivity JNK1/MKK4” value on JNK1 (Test conc 10 μM) is given as over 100.

On to `CCCS(=O)(=O)Nc1ccc(F)c(C(=O)c2c[nH]c3ncc(-c4ccccc4O)cc23)c1F` [Example 9, N-(2,4-Difluoro-3-(5-(2-hydroxyphenyl)-1H-pyrrolo[2,3-b]pyridine-3-carbonyl)phenyl)propane-1-sulfonamide], for which the remaining binding at 0.1 µM on MKK4 was over 30%. For the same compound, the “Selectivity BRaf/MKK4” value on BRaf came to 4.2. Besides, the “Selectivity MKK7/MKK4” value at MKK7 worked out at 6.7. At JNK1 (Test conc 10 μM), the “Selectivity JNK1/MKK4” value is over 10.

With `CCCS(=O)(=O)Nc1ccc(F)c(C(=O)c2c[nH]c3ncc(-c4ccc(F)cc4)cc23)c1F` [Example 11, N-(2,4-Difluoro-3-(5-(4-fluorophenyl)-1H-pyrrolo[2,3-b]pyridine-3-carbonyl)phenyl)propane-1-sulfonamide], the remaining binding at 0.1 µM on MKK4 was in the range of 10 to 30%. Also, at BRaf, the “Selectivity BRaf/MKK4” value was 6.3. Moreover, at MKK7, the “Selectivity MKK7/MKK4” value is reported as 25. Also, the “Selectivity JNK1/MKK4” value at JNK1 (Test conc 10 μM) is over 100.

`CCCS(=O)(=O)Nc1ccc(F)c(C(=O)c2c[nH]c3ncc(-c4cccc(C#N)c4)cc23)c1F` [Example 14, N-(3-(5-(3-Cyanophenyl)-1H-pyrrolo[2,3-b]pyridine-3-carbonyl)-2,4-difluorophenyl)propane-1-sulfonamide]: the remaining binding at 0.1 µM at MKK4 lay within 10 to 30%. The “Selectivity BRaf/MKK4” value on BRaf was found to be 1.5. Besides, on MKK7, the “Selectivity MKK7/MKK4” value came to 10. Moreover, the “Selectivity JNK1/MKK4” value at JNK1 (Test conc 10 μM) is 23.

Take `CCCS(=O)(=O)Nc1ccc(F)c(C(=O)c2c[nH]c3ncc(-c4ccc5c(c4)OCCO5)cc23)c1F` [Example 15, N-(3-(5-(2,3-Dihydrobenzo[b][1,4]dioxin-6-yl)-1H-pyrrolo[2,3-b]pyridine-3-carbonyl)-2,4-difluorophenyl)propane-1-sulfonamide]: the remaining binding at 0.1 µM at MKK4 was in the range of 10 to 30%. For the same compound, at BRaf, the “Selectivity BRaf/MKK4” value came out at 2.0. Further, the “Selectivity MKK7/MKK4” value at MKK7 was found to be 30. Also, the “Selectivity JNK1/MKK4” value on JNK1 (Test conc 10 μM) is given as over 100.

As to `CCCS(=O)(=O)Nc1ccc(F)c(C(=O)c2c[nH]c3ncc(-c4ccc(F)c(F)c4)cc23)c1F` [Example 16, N-(3-(5-(3,4-Difluorophenyl)-1H-pyrrolo[2,3-b]pyridine-3-carbonyl)-2,4-difluorophenyl)propane-1-sulfonamide], the remaining binding at 0.1 µM on MKK4 was over 30%. On BRaf, the “Selectivity BRaf/MKK4” value is given as 2.5. Moreover, the “Selectivity MKK7/MKK4” value at MKK7 came to 8. For the same compound, on JNK1 (Test conc 10 μM), the “Selectivity JNK1/MKK4” value was over 100.

Regarding `CCCS(=O)(=O)Nc1ccc(F)c(C(=O)c2c[nH]c3ncc(-c4cccc5ccccc45)cc23)c1F` [Example 18, N-(2,4-Difluoro-3-(5-(naphthalen-1-yl)-1H-pyrrolo[2,3-b]pyridine-3-carbonyl)phenyl)propane-1-sulfonamide], the remaining binding at 0.1 µM on MKK4 was over 30%. Further, the “Selectivity BRaf/MKK4” value at BRaf was 1.6. The “Selectivity MKK7/MKK4” value on MKK7 is 3. The “Selectivity JNK1/MKK4” value on JNK1 (Test conc 10 μM) amounted to 40.

As to `CCCS(=O)(=O)Nc1cc(C)cc(C(=O)c2c[nH]c3ncc(-c4ccc(Cl)cc4)cc23)c1` [Example 24, N-(3-(5-(4-Chlorophenyl)-1H-pyrrolo[2,3-b]pyridine-3-carbonyl)-5-methylphenyl)propane-1-sulfonamide], the remaining binding at 0.1 µM at MKK4 is over 30%. Moreover, the “Selectivity BRaf/MKK4” value at BRaf was 0.9. The “Selectivity MKK7/MKK4” value at MKK7 is reported as 1.0. The “Selectivity JNK1/MKK4” value at JNK1 (setting [1]) is recorded as “N/E* (PoC for JNK1 = 100)”.

In the case of `CCCS(=O)(=O)Nc1cccc(C(=O)c2c[nH]c3ncc(-c4ccc(Cl)cc4)cc23)c1C` [Example 25, N-(3-(5-(4-Chlorophenyl)-1H-pyrrolo[2,3-b]pyridine-3-carbonyl)-2-methylphenyl)propane-1-sulfonamide], the remaining binding at 0.1 µM at MKK4 is over 30%. The “Selectivity BRaf/MKK4” value at BRaf is listed as 1.0. The “Selectivity MKK7/MKK4” value at MKK7 came out at 1.0. For the same compound, the “Selectivity JNK1/MKK4” value on JNK1 (setting [1]) is reported as “N/E* (PoC for JNK1 = 100)”.

`CCCS(=O)(=O)Nc1ccc(F)c(C(=O)c2c[nH]c3ncc(-c4ccc(Cl)cc4Cl)cc23)c1F` [Example 41, N-(3-(5-(2,4-Dichlorophenyl)-1H-pyrrolo[2,3-b]pyridine-3-carbonyl)-2,4-difluorophenyl)propane-1-sulfonamide]: the remaining binding at 0.1 µM at MKK4 is over 30%. Further, the “Selectivity BRaf/MKK4” value at BRaf worked out at 3.3. At MKK7, the “Selectivity MKK7/MKK4” value came out at 3.3. Also, the “Selectivity JNK1/MKK4” value at JNK1 (setting [1]) is listed as “N/E* (PoC for JNK1 = 100)”.

As for `CCCS(=O)(=O)Nc1ccc(F)c(C(=O)c2c[nH]c3ncc(-c4ccc(Cl)cc4F)cc23)c1F` [Example 49], the remaining binding at 0.1 µM on MKK4 was under 10%. Besides, at BRaf, the “Selectivity BRaf/MKK4” value stood at 8.9. Further, the “Selectivity MKK7/MKK4” value at MKK7 is given as “N/E* (PoC for JNK1 = 100)”. Besides, at JNK1 (setting [1]), the “Selectivity JNK1/MKK4” value came to 7.1.

Turning to `CCCCS(=O)(=O)Nc1cccc(C(=O)c2c[nH]c3ncc(-c4ccc(F)cc4C)cc23)c1F` [Example 51], the remaining binding at 0.1 µM on MKK4 is under 10%. Further, the “Selectivity BRaf/MKK4” value on BRaf is given as “N/E* (PoC for JNK1 = 100)”. Besides, on MKK7, the “Selectivity MKK7/MKK4” value is listed as “N/E* (PoC for JNK1 = 100)”. Besides, at JNK1 (setting [1]), the “Selectivity JNK1/MKK4” value was “N/E* (PoC for JNK1 = 100)”.

Consider `CCCS(=O)(=O)Nc1ccc(F)c(C(=O)c2c[nH]c3ncc(-c4ccc(O)cc4Cl)cc23)c1F` [Example 94, N-(3-(5-(2-chloro-4-hydroxy-phenyl)-1H-pyrrolo[2,3-b]pyridine-3-carbonyl)-2,4-difluoro-phenyl)propane-1-sulfonamide], for which the remaining binding at 0.1 µM at MKK4 is under 10%. Also, the “Selectivity BRaf/MKK4” value at BRaf is 20. Besides, the “Selectivity MKK7/MKK4” value on MKK7 came to 22. In addition, the “Selectivity JNK1/MKK4” value at JNK1 (setting [1]) is listed as 25.

Turning to `CCCS(=O)(=O)Nc1ccc(F)c(C(=O)c2c[nH]c3ncc(-c4ccc(OCC)cc4Cl)cc23)c1F` [Example 95, N-(3-(5-(2-chloro-4-ethoxy-phenyl)-1H-pyrrolo[2,3-b]pyridine-3-carbonyl)-2,4-difluorophenyl)-propane-1-sulfonamide], the remaining binding at 0.1 µM on MKK4 is under 10%. The “Selectivity BRaf/MKK4” value on BRaf was 6.5. For the same compound, the “Selectivity MKK7/MKK4” value on MKK7 was “N/E* (PoC for JNK1 = 100)”. The “Selectivity JNK1/MKK4” value on JNK1 (setting [1]) came to 8.6.

Turning to `CCCS(=O)(=O)Nc1ccc(F)c(C(=O)c2c[nH]c3ncc(-c4ccc(OC(C)C)cc4Cl)cc23)c1F` [Example 96, N-(3-(5-(2-chloro-4-isopropoxy-phenyl)-1H-pyrrolo[2,3-b]pyridine-3-carbonyl)-2,4-difluorophenyl)-propane-1-sulfonamide], the remaining binding at 0.1 µM at MKK4 lay within 10 to 30%. Moreover, the “Selectivity BRaf/MKK4” value at BRaf was determined as 8.0. Also, on MKK7, the “Selectivity MKK7/MKK4” value is reported as “N/E* (PoC for JNK1 = 100)”. In addition, on JNK1 (setting [1]), the “Selectivity JNK1/MKK4” value is 8.7.
